# Assay results from patent publication US20130158024A1, “TRICYCLIC NECROSTATIN COMPOUNDS” (priority 2005, published 2013).
# “Also recorded” adds a separate entry of the source.
# Assays:
# [1] = test system: FADD deficient Jurkat cells
# U937 cells [2] = assay: Necrosis of U937 cells induced by TNFα and zVAD.fmk (primary and secondary screen), ATP assay; assay type: cell-based, human; details: U937, 72 hours
# Procedure: We plated U937 cells in 384-well plates at 5,000-10,000 cells per well in 40-μl phenol red-free RPMI 1640 medium containing 100 μM zVAD.fmk and 40 ng ml^−1 human TNFα using a Multidrop dispenser (Thermo Electron). We added 100 nl of the DiverSetE (5 mg ml^−1 in DMSO, Chembridge) using a Seiko-based custom-built pin transfer robot (Institute of Chemistry and Cell Biology, Harvard Medical School). After 72 hours, we assessed cell viability using a luminescence-based ATP assay (ATPLite-M, PerkinElmer). We also dispensed cells not treated with TNFα in each plate as a positive control. We purchased Nec-1 and other preliminary positive hits from Chembridge for individual retesting.
# Using a known paradigm of death receptor mediated caspase-independent cell death in human U937 cells, we established a high-throughput screen in 384 well format for small molecule inhibitors of caspase-independent cell death (CICD). In this system, U937 cells were induced to undergo CICD in the presence of TNFα and zVAD.fmk, and the rate of cell death was determined by an ATP-Lite-M assay, a commercial luminescence-based assay measuring cellular ATP levels (Packard). U937 cells were chosen because these cells can be induced to undergo CICD very efficiently upon TNFα/zVAD treatment in the absence of additional, stress-inducing sensitizing stimuli, such as CHX, making this system perfectly suited for reliable identification of CICD inhibitors. Furthermore, rapid suspension growth kinetics of U937 cells results in the availability of large quantities of cells, which translates into robust signals ideal for high throughput screening. ATP-Lite-M assay was chosen because among all the different assay systems tested, it gives the most consistent and robust signal, which is also critical for high throughput screening. Exposure of U937 cells to TNFα alone led to partial cell death, whereas co-treatment with TNFα and caspase inhibitor zVAD.fmk produced significant increase in the amount of cell death and ATP loss consistent with the published observations. In addition, in the presence of zVAD.fmk, the morphology of cell loss changed from apoptosis with cell shrinkage, nuclear fragmentation, membrane blebbing to necrosis, characterized by cell swelling, increase in cytosolic density, and early loss of plasma membrane integrity. Other cell death assays, such as an MTT assay (mitochondrial metabolism) and Sytox assay (permeability of the plasma membrane), were used as alternative means to validate the screen, and consistently produced results similar to those obtained using ATP-Lite-M assay, which confirmed that the ATP-Lite-M assay can be used to accurately measure the extent of CICD.
# In a primary screen, U-937 cells (5×10^5 or 7.5×10^5 cells/ml) were first exposed to zVAD-fmk (100 μM). Thirty minutes later the same cells were exposed to a chemical compound from the library (5 mg/ml, dissolved in 0.1-0.5 μl of DMSO, giving a final DMSO concentration of 0.3% to 1.5%). After an additional thirty minutes, TNFα (40 ng/ml) was added to the cell culture medium. The cells were then incubated at 37 C for 72 hours, and were then assayed for cellular ATP levels. […] Compounds which maintained cellular ATP levels were compounds which blocked necrosis triggered by zVAD-fmk and TNFα.
# In a secondary screen, the compounds identified from the first screen, above, to decrease necrosis induced by zVAD-fmk and TNFα were assayed for their potency. Serial dilution of each chemical compound was performed and the compounds were administered to U-937 cells, as per the primary screen. The concentrations of each compound were 70 μM, 23 μM, 8 μM, and 2.5 μM. The level of necrosis occurring in response to zVAD-fmk, TNFα, and the various concentrations of chemical compounds was assayed as described above for the primary screen.
# Jurkat T cells = assay: Necrosis (CICD) of Jurkat T cells induced by Fas ligand, cycloheximide and zVAD, ATP assay; assay type: cell-based, human; details: FasL/CHX/zVAD
# Outline: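 Jurkat cells given FasL (5 ng/ml), cycloheximide (1 μg/ml) and zVAD.fmk (100 μM) to drive CICD, with compounds at the indicated amounts. Viability read as ATP by CellTiter-Glo after 36 h, relative to untreated cells without FasL (100%).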
# [3] = test system: RIP kinase-induced necroptosis in FADD-deficient Jurkat cells; assay: Necroptosis induced by dimerized RIP kinase in FADD-deficient Jurkat cells, FACS; assay type: cell-based, human; details: dimerizer AP1510, zVAD.fmk, 48 hours
# Procedure: Percentage of PI-negative, GFP-positive cells (“Viability, %”) was determined by FACS. Numbers represent viability normalized to that of the compound-treated cells in the absence of dimerizer. Error bars represent standard deviations.
# RAW264.7 cells = assay: LPS/zVAD.fmk-induced CICD of RAW264.7 macrophage cells, ATP assay; assay type: cell-based, mouse; details: 10 ng/ml LPS, 50 or 100 μM zVAD.fmk, 30 μM Nec-1, 24 hours
# Procedure: Cell viability was determined 24 hours later using an ATP assay. Values represent the percentages of live cells normalized to the control DMSO-treated cells.
# U937 cells [4] = assay: Oxidative stress (menadione) induced death of U937 cells, ATP assay; assay type: cell-based, human; details: 250 μM menadione, 24 hours
# Procedure: Viability of TNFα/zVAD/DMSO or manadione/DMSO blank treated cells is also shown (- - -). Viability was determined using ATP-Lite-M assay (Packard). Numbers represent percentages of live cells. The values were normalized relative to the zVAD or DMSO treated controls, which were set as 100% viability.
# In this and subsequent panels, cell viability was determined via ATP assay. Numbers represent viability normalized to that of the DMSO-treated cells in the absence of TNFα and menadione. Throughout, error bars represent standard deviations. […] Representative images are shown. […] Protein lysates were subjected to western blotting with antibodies to LC3 and to tubulin. The ratio of LC3-II to tubulin signals was calculated (“Ratio”) and normalized to the value in the control sample. […] Alternatively, cells were treated with 2 μM rapamycin. […] Numbers represent viability normalized to that of the compound-treated cells in the absence of TNFα. In FIG. 28H, expression of beclin-1 (“Bec”) and tubulin (“Tub”) in the stable populations of cells in FIG. 28G was analyzed by western blotting.
substance,measurement,setting,value
methylthiohydantoin-tryptophane [Nec-1],"non-specific cytotoxicity, in words","[1]; 24 hours, ATP assay",does not induce non-specific cytotoxicity in FADD-deficient Jurkat cells
same,LD50,[1]; compound in the absence of TNFα,374 µM
same,"inhibition of necrosis induced by TNFα/zVAD.fmk, in words",U937 cells [2],inhibition of cell death of U937 cells treated with TNFα and zVAD.fmk for 72 hours; also recorded: provided expected protection against TNFα/zVAD.fmk; also recorded: efficiently blocked necroptotic death in U937 cells in a concentration-dependent fashion
same,"inhibition of CICD/necrosis of Jurkat cells, in words",Jurkat T cells,protected against CICD induced by FasL/CHX/zVAD; also recorded: efficiently inhibited by Nec-1; also recorded: inhibited all published examples of necrotic cell death induced by DR activation in the presence of caspase inhibitors
same,"inhibition of RIP kinase-induced necroptosis, in words",[3],inhibits RIP kinase-induced necroptosis; also recorded: inhibited by Nec-1
same,"protection from LPS/zVAD.fmk toxicity, in words",RAW264.7 cells,protects from CICD induced by LPS in macrophage cells; also recorded: efficiently inhibited LPS-mediated sensitization of RAW264.7 cells to dose-dependent toxicity of zVAD.fmk
same,"protection from menadione induced cell death, in words",U937 cells [4],did not block the “classic” oxidative stress-induced necrosis caused by menadione
